This is an account of results in patent US12612424B2, “HPK1 inhibitors and uses thereof” (Regor Pharmaceuticals, Inc., priority 2019, dated 2026).

This experiment has as its system Human Pan T Cell (IL-2 release). Kind of experiment: IL2 released by human pan T cell upon anti-CD3/anti-CD28 stimulation (ELISA). Format: cell-based. The following applies: human pan T cells. The essentials: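 Primary human pan-T cells, negatively isolated from PBMC, plated at 100,000 cells/well and stimulated with immobilized anti-CD3 plus soluble anti-CD28 in presence of test compound at varying concentrations. After 2 days, secreted IL-2 in supernatant quantified by ELISA.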
In general terms: ELISA stands for enzyme-linked immunosorbent assay.

Molecules are shown by their SMILES. pEC50: −log10 of the molar value.

As a reminder, the pEC50 is −log10 of the EC50, conventionally taken in molar units. Consider `COc1cc2c(cc1Nc1ncc(Cl)c(N3CC(C(=O)O)C4(CCCC4)C3)n1)CN(C)CC2` (stereo not drawn) [Example 169, 2-(5-Chloro-2-((6-methoxy-2-methyl-1,2,3,4-tetrahydroisoquinolin-7-yl)amino)pyrimidin-4-yl)-2-azaspiro[4.4]nonane-4-carboxylic acid], for which the maximal fold induction (Homo sapiens, T-cell, 48 h, response of IL-2 over DMSO control, anti-CD3/anti-CD28, 48 hours, ELISA, read-out: IL-2 Max Fold Response) is > 2. The pEC50 (Homo sapiens, T-cell, IL-2 response, calculated with GraphPad Prism) is < 6.00. Moreover, the “EC2x (nM)” value (concentration of compound that gives 200% IL-2 response (2 folds) over DMSO control) is reported as “++ (“++”, for higher values than “+++” but less than or equal to 1 μM)”.
